Measurements reported in publication PMC10092094 (Chemmedchem, 2022).

Assays:
OGG1 [1] = molecular target: T1, OGG1 (Homo sapiens, UniProt O15527); experiment: Differential scanning fluorimetry; type: binding
OGG1 [2] = molecular target: T1, OGG1; experiment: biochemical
[3] = IC50 (CI95), biochemical inhibition, confidence interval 95 in parentheses

T1 sequence (O15527 whole entry): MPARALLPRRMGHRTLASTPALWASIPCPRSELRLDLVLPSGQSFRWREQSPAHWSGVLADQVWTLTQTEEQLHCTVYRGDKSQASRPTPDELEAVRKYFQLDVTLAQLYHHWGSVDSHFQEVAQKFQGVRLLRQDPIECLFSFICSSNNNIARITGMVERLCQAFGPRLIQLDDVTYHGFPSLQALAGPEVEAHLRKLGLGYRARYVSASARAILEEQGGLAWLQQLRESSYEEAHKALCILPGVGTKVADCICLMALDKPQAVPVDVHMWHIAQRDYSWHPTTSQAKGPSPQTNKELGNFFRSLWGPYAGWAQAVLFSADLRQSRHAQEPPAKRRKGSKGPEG

DSF stabilization (ΔT) (OGG1 [1]) | IC50 (OGG1 [2]; [3]) | IC50 (OGG1 [2]; IC50, biochemical inhibition, single replicate) | Structure (SMILES)
0.0 K | 46 µM | – | CC(C)(C)c1ccc(NC(=O)N2CCC(n3c(=O)[nH]c4c(Br)cccc43)CC2)cc1 [Compound 46, 4‐(4‐bromo‐2‐oxo‐2,3‐dihydro‐1H‐1,3‐benzodiazol‐1‐yl)‐N‐(4‐tert‐butylphenyl)piperidine‐1‐carboxamide]
1.6 K | 1.6 µM | – | O=C(Nc1ccc(C(F)(F)F)cc1)N1CCC(n2c(=O)[nH]c3c(Br)cccc32)CC1 [Compound 49, 4‐(4‐bromo‐2‐oxo‐2,3‐dihydro‐1H‐1,3‐benzodiazol‐1‐yl)‐N‐[4‐(trifluoromethyl)phenyl]piperidine‐1‐carboxamide]
1.9 K | 0.3 µM | – | COc1cc(NC(=O)N2CCC(n3c(=O)[nH]c4c(Br)cccc43)CC2)ccc1Cl [Compound 54, 4‐(4‐bromo‐2‐oxo‐2,3‐dihydro‐1H‐1,3‐benzodiazol‐1‐yl)‐N‐(4‐chloro‐3‐methoxyphenyl)piperidine‐1‐carboxamide]
1.8 K | 0.2 µM | – | COc1cc(NC(=O)N2CCC(n3c(=O)[nH]c4c(Br)cccc43)CC2)ccc1C [Compound 55, 4‐(4‐bromo‐2‐oxo‐2,3‐dihydro‐1H‐1,3‐benzodiazol‐1‐yl)‐N‐(3‐methoxy‐4‐methylphenyl)piperidine‐1‐carboxamide]
5.1 K | 4.4 µM | – | COc1ccc(NC(=O)N2CCC(n3c(=O)[nH]c4c(Br)cccc43)CC2)cc1OC [Compound 56, 4‐(4‐bromo‐2‐oxo‐2,3‐dihydro‐1H‐1,3‐benzodiazol‐1‐yl)‐N‐(3,4‐dimethoxyphenyl)piperidine‐1‐carboxamide]

More lines, now with the values behind:

Structure (SMILES) | DSF stabilization (ΔT) (OGG1 [1]) | IC50 (OGG1 [2]; [3]) | IC50 (OGG1 [2]; IC50, biochemical inhibition, single replicate)
O=C(Nc1ccc(Br)cc1)N1CCC(n2c(=O)[nH]c3c(Br)cccc32)CC1 [Compound 44, 4‐(4‐bromo‐2‐oxo‐2,3‐dihydro‐1H‐1,3‐benzodiazol‐1‐yl)‐N‐(4‐bromophenyl)piperidine‐1‐carboxamide] | 4.2 K | 0.19 µM | –
Cc1ccc(NC(=O)N2CCC(n3c(=O)[nH]c4c(Br)cccc43)CC2)cc1 [Compound 45, 4‐(4‐bromo‐2‐oxo‐2,3‐dihydro‐1H‐1,3‐benzodiazol‐1‐yl)‐N‐(4‐methylphenyl)piperidine‐1‐carboxamide] | 5.1 K | 2.1 µM | –
COc1ccc(NC(=O)N2CCC(n3c(=O)[nH]c4c(Br)cccc43)CC2)cc1 [Compound 47, 4‐(4‐bromo‐2‐oxo‐2,3‐dihydro‐1H‐1,3‐benzodiazol‐1‐yl)‐N‐(4‐methoxyphenyl)piperidine‐1‐carboxamide] | 4.1 K | – | 3.1 µM
O=C(Nc1ccc(Cl)c(Cl)c1)N1CCC(n2c(=O)[nH]c3c(Br)cccc32)CC1 [Compound 53, 4‐(4‐bromo‐2‐oxo‐2,3‐dihydro‐1H‐1,3‐benzodiazol‐1‐yl)‐N‐(3,4‐dichlorophenyl)piperidine‐1‐carboxamide] | 3.1 K | 0.44 µM | –
